According to patent US10370371B2, “Substituted pyrimidine Bmi-1 inhibitors” (PTC Therapeutics, Inc., priority 2013, dated 2019):

System: Bmi-1 protein
Experiment: Sandwich ELISA Assay (Bmi-1 protein level in HT-1080 cells)
Assay type: cell-based
Description: Cell Seeding and Compound Treatment (Day 1):
HT-1080 cells were seeded at 8000 cells/well (50 μL) in 96-well tissue culture plates. After the cells became adherent (3-4 hours), 2× diluted stocks of test compounds in 50 μL DMEM containing 1% DMSO (final DMSO concentration was 0.5%) were added and the plates were incubated at 37° C. under 5% CO2 for 40-48 hours.
ELISA Plate First Antibody Preparation (Day 2):
The First Antibody (Millipore Mouse, monoclonal to mouse Bmi-1, clone F6, catalog #05-637) diluted to 2 μg/mL in PBS was added (100 μL) to each well of a Nunc MaxiSorp 96-well ELISA plate. The plate was covered with a plate seal and allowed to stand overnight.
Cell Lysate Preparation (Day 3):
Fresh Lysis buffer (1×) was prepared on the day of the assay as follows: 1 mM EDTA, 150 mM NaCl, 0.5% Triton-X 100, 10 mM NaF, 20 mM B-Glycerophosphate, 1 mM DTT (in PBS, pH 7.2-7.4) and HALT protease inhibitor cocktail (1×) (Pierce #78410).
Lysis Buffer (1×, 40 μL) was added to each well and the plate was shaken for 5-10 minutes on an orbital shaker to allow cell lysis, then diluent (1% BSA in PBS in 0.5% NP40) (100 μL) was added to each well.
A standard curve was prepared at the following Bmi-1 concentrations: 8000, 4000, 2000, 1000, 500, 250, 125 and 0 pg/mL. The Bmi-1 Recombinant Protein Standard (Novus Biologicals PCGF4 Recombinant Protein (P01), catalog # H00000648-P01) used to prepare the standard curve was stored at −80° C. On first thaw, the Recombinant Protein Standard was diluted to 10 μg/μL in Blocking Buffer (1% BSA in PBS; BSA: Fisher Scientific Catalog #1600-100). Aliquots were taken and refrozen at −80° C. The aliquots may be kept at 4° C. and reused after first thaw, but only within 1-2 weeks. The Recombinant Protein Standard contains a GST-fusion tag that appears at approximately 70 Kda on Western Blot.
The prepared ELISA plate was washed 3× with Wash Buffer (0.05% Tween-20 in PBS). The final wash was removed from the plate and the plate was blotted dry. Blocking Buffer (300 μL) (1% BSA in PBS) was added to each well. The plate was covered with a plate seal and incubated at room temperature for 1 hour. The blocked plate was washed 3× with Wash Buffer, then the final wash was removed and the plate was blotted dry. The previously prepared samples and standards were added (100 μL/well) and the plate was covered with a plate seal and incubated at 4° C. overnight.
The prepared ELISA plate was removed from incubation and allowed to stand at room temperature for 30 minutes, then washed and blotted dry. The Second Antibody (Cell Signaling Rabbit anti-Bmi-1, Cat#2830) diluted to 1:600 in Blocking Buffer was added (100 μL) to each well, except as needed for background control wells. The plate was covered with a plate seal and incubated for 1.5 hrs at room temperature.
The ELISA plate was washed and blotted dry as previously described. The Third Antibody (Cell Signaling HRP conjugated anti-rabbit IgG (CellSignaling, Cat#:7074) diluted to 1:300 in Blocking Buffer was added (100 μL) to each well, except as needed for background control wells. The plate was incubated for 1 hr at room temperature.
The plate was washed and blotted dry, then a previously prepared TMB substrate (TMB substrate kit, Pierce catalog #34021) (prepared by mixing kit reagents 1:1) (100 μL) was added per well. The plate was incubated for 20-30 minutes at room temperature in the dark, then Stop Solution (2 M sulfuric acid in water) (50 μL) was added per well. The plates were read at OD450 (experimental) and OD570 (reference).

Row | SMILES | EC50 [nM]
1 | CCc1nc2cc(F)c(F)cc2n1-c1cc(N)nc(Nc2ccc(C(F)(F)F)cc2)n1 [Cpd 65, 6-(2-ethyl-5,6-difluoro-1H-benzimidazol-1-yl)-N^2-[4-(trifluoromethyl)phenyl]pyrimidine-2,4-diamine] | 10 to 100
2 | Nc1cc(-n2c(C3CC3)nc3cc(F)c(F)cc32)nc(Nc2ccc(OC(F)F)cc2)n1 [Cpd 66, 6-(2-cyclopropyl-5,6-difluoro-1H-benzimidazol-1-yl)-N^2-[4-(difluoromethoxy)phenyl]pyrimidine-2,4-diamine] | 1 to 10
3 | N#Cc1cc(-n2c(C3CC3)nc3cc(F)c(F)cc32)nc(Nc2ccc(C(F)(F)F)cc2)n1 [Cpd 67, 6-(2-cyclopropyl-5,6-difluoro-1H-benzimidazol-1-yl)-2-{[4-(trifluoromethyl)phenyl]amino}pyrimidine-4-carbonitrile] | 100 to 3000
4 | Cc1nc2cc(F)c(F)cc2n1-c1cc(C#N)nc(Nc2ccc(C(F)(F)F)cc2)n1 [Cpd 68, 6-(5,6-difluoro-2-methyl-1H-benzimidazol-1-yl)-2-{[4-(trifluoromethyl)phenyl]amino}pyrimidine-4-carbonitrile] | 100 to 3000
5 | Nc1cc(-n2c(C(F)F)nc3ccccc32)nc(Nc2ccc(C(F)(F)F)cc2)n1 [Cpd 69, 6-[2-(difluoromethyl)-1H-benzimidazol-1-yl]-N^2-[4-(trifluoromethyl)phenyl]pyrimidine-2,4-diamine] | 10 to 100
6 | Nc1cc(-n2c(C(F)F)nc3ccc(F)cc32)nc(Nc2ccc(OC(F)F)cc2)n1 [Cpd 72, N^2-[4-(difluoromethoxy)phenyl]-6-[2-(difluoromethyl)-6-fluoro-1H-benzimidazol-1-yl]pyrimidine-2,4-diamine] | 10 to 100
7 | NC(=O)c1cccc(Nc2nccc(-c3cnc4ccccn34)n2)c1 [Cpd 75, 3-{[4-(imidazo[1,2-a]pyridin-3-yl)pyrimidin-2-yl]amino}benzamide] | 100 to 3000
8 | CCc1nc2cc(F)c(F)cc2n1-c1cc(N)nc(Nc2ccc(OC(F)F)cc2)n1 [Cpd 76, N^2-[4-(difluoromethoxy)phenyl]-6-(2-ethyl-5,6-difluoro-1H-benzimidazol-1-yl)pyrimidine-2,4-diamine] | 10 to 100
9 | Cc1nc2cc(F)c(F)cc2n1-c1cc(N)nc(Nc2ccc(OC(F)F)cc2)n1 [Cpd 77, N^2-[4-(difluoromethoxy)phenyl]-6-(5,6-difluoro-2-methyl-1H-benzimidazol-1-yl)pyrimidine-2,4-diamine] | 10 to 100
10 | Cc1nn2ccccc2c1-c1cc(N)nc(Nc2ccc(C(F)(F)F)cc2)n1 [Cpd 82, 6-(2-methylpyrazolo[1,5-a]pyridin-3-yl)-N^2-[4-(trifluoromethyl)phenyl]pyrimidine-2,4-diamine] | 10 to 100
11 | Cc1nc2ccccc2n1-c1cc(N)nc(Nc2ccc(OC(F)F)cc2)n1 [Cpd 83, N^2-[4-(difluoromethoxy)phenyl]-6-(2-methyl-1H-benzimidazol-1-yl)pyrimidine-2,4-diamine] | 10 to 100
12 | CCc1nc2ccccc2n1-c1cc(N)nc(Nc2ccc(OC(F)F)cc2)n1 [Cpd 84, N^2-[4-(difluoromethoxy)phenyl]-6-(2-ethyl-1H-benzimidazol-1-yl)pyrimidine-2,4-diamine] | 10 to 100
13 | Nc1cc(-n2c(C3CC3)nc3ccccc32)nc(Nc2ccc(OC(F)F)cc2)n1 [Cpd 85, 6-(2-cyclopropyl-1H-benzimidazol-1-yl)-N^2-[4-(difluoromethoxy)phenyl]pyrimidine-2,4-diamine] | 10 to 100
14 | Nc1cc(-n2c(C3CC3)nc3cc(Cl)ccc32)nc(Nc2ccc(C(F)(F)F)cc2)n1 [Cpd 86, 6-(5-chloro-2-cyclopropyl-1H-benzimidazol-1-yl)-N^2-[4-(trifluoromethyl)phenyl]pyrimidine-2,4-diamine] | 100 to 3000
15 | Nc1cc(-n2c(C3CC3)nc3ccc(Cl)cc32)nc(Nc2ccc(C(F)(F)F)cc2)n1 [Cpd 87, 6-(6-chloro-2-cyclopropyl-1H-benzimidazol-1-yl)-N^2-[4-(trifluoromethyl)phenyl]pyrimidine-2,4-diamine] | 10 to 100
16 | CCc1nn2ccccc2c1-c1cc(N)nc(Nc2ccc(C(F)(F)F)cc2)n1 [Cpd 90, 6-(2-ethylpyrazolo[1,5-a]pyridin-3-yl)-N^2-[4-(trifluoromethyl)phenyl]pyrimidine-2,4-diamine] | 10 to 100
17 | CCc1nn2ccccc2c1-c1cc(N)nc(Nc2ccc(OC(F)F)cc2)n1 [Cpd 91, N^2-[4-(difluoromethoxy)phenyl]-6-(2-ethylpyrazolo[1,5-a]pyridin-3-yl)pyrimidine-2,4-diamine] | 10 to 100
18 | Nc1cc(-n2c(C3CC3)nc3cc(Cl)ccc32)nc(Nc2ccc(OC(F)F)cc2)n1 [Cpd 92, 6-(5-chloro-2-cyclopropyl-1H-benzimidazol-1-yl)-N^2-[4-(difluoromethoxy)phenyl]pyrimidine-2,4-diamine] | 10 to 100
19 | Nc1cc(-n2c(C3CC3)nc3ccc(Cl)cc32)nc(Nc2ccc(OC(F)F)cc2)n1 [Cpd 93, 6-(6-chloro-2-cyclopropyl-1H-benzimidazol-1-yl)-N^2-[4-(difluoromethoxy)phenyl]pyrimidine-2,4-diamine] | 10 to 100
20 | Cc1nc2ccccc2n1-c1nc(Nc2ccc(OC(F)F)cc2)nc(N)c1F [Cpd 94, N^2-[4-(difluoromethoxy)phenyl]-5-fluoro-6-(2-methyl-1H-benzimidazol-1-yl)pyrimidine-2,4-diamine] | 10 to 100
21 | CCc1nc2ccccc2n1-c1cc(N)nc(Nc2ccc(C(F)(F)F)nc2)n1 [Cpd 95, 6-(2-ethyl-1H-benzimidazol-1-yl)-N^2-[6-(trifluoromethyl)pyridin-3-yl]pyrimidine-2,4-diamine] | 10 to 100
22 | CCc1nc2cc(Cl)ccc2n1-c1cc(N)nc(Nc2ccc(C(F)(F)F)cc2)n1 [Cpd 96, 6-(5-chloro-2-ethyl-1H-benzimidazol-1-yl)-N^2-[4-(trifluoromethyl)phenyl]pyrimidine-2,4-diamine] | 100 to 3000
23 | CCc1nc2ccc(Cl)cc2n1-c1cc(N)nc(Nc2ccc(C(F)(F)F)cc2)n1 [Cpd 97, 6-(6-chloro-2-ethyl-1H-benzimidazol-1-yl)-N^2-[4-(trifluoromethyl)phenyl]pyrimidine-2,4-diamine] | 10 to 100
24 | Nc1cc(-c2c(C(F)(F)F)nn3ccccc23)nc(Nc2ccc(C(F)(F)F)cc2)n1 [Cpd 98, N^2-[4-(trifluoromethyl)phenyl]-6-[2-(trifluoromethyl)pyrazolo[1,5-a]pyridin-3-yl]pyrimidine-2,4-diamine] | 10 to 100
25 | Cc1nc2ncc(F)cc2n1-c1cc(N)nc(Nc2ccc(C(F)(F)F)cc2)n1 [Cpd 100, 6-(6-fluoro-2-methyl-1H-imidazo[4,5-b]pyridin-1-yl)-N^2-[4-(trifluoromethyl)phenyl]pyrimidine-2,4-diamine] | 1 to 10
26 | Cc1nc2ncc(F)cc2n1-c1cc(N)nc(Nc2ccc(OC(F)F)cc2)n1 [Cpd 101, N^2-[4-(difluoromethoxy)phenyl]-6-(6-fluoro-2-methyl-1H-imidazo[4,5-b]pyridin-1-yl)pyrimidine-2,4-diamine] | 1 to 10
27 | Cc1nc2cc(F)ccc2n1-c1cc(N)nc(Nc2ccc(C(F)(F)F)cc2)n1 [Cpd 102, 6-(5-fluoro-2-methyl-1H-benzimidazol-1-yl)-N^2-[4-(trifluoromethyl)phenyl]pyrimidine-2,4-diamine] | 10 to 100
28 | CCc1nc2cc(F)ccc2n1-c1cc(N)nc(Nc2ccc(C(F)(F)F)cc2)n1 [Cpd 104, 6-(2-ethyl-5-fluoro-1-benzimidazol-1-yl)-N^2-[4-(trifluoromethyl)phenyl]pyrimidine-2,4-diamine] | 10 to 100
